Measurements published in a melting point compilation (Tetko et al.; mined from patent text by program, amines drawn as free bases though some values may be those of a salt).

SMILES | melting point [°C]
O=C(N=C1CCCN1Cc1ccccc1)Nc1ccc(F)c(Cl)c1 | 131 to 132
Nc1nc(N)nc(N2CCNCC2)n1 | 262 to 268
C[C@@H]1N=C(c2ccccc2)c2cc([N+](=O)[O-])ccc2N(C)C1=O | 84 to 85
CNC(=O)c1ccccc1Nc1nc(Nc2cc3c(cc2OC)CCN(CCOC)CC3)ncc1Br | 171 to 175
CC1(C)CCC(C)(C)c2cc(S(=O)c3ccc(C(=O)O)cc3)ccc21 (configuration not stated) | 214 to 216
Nc1nc(OCCc2ccc(Cl)cc2)nc2c1ncn2C1OC(CO)C(O)C1O (configuration not stated) | 156 to 159
Cc1ccc2[nH]c(C(=O)OC(C)C)c(Sc3ccc(Cl)cc3)c2c1 | 172 to 174
Nc1c(Cl)cc(C(O)CNCCCCCCOCCCCCCc2cncnc2)cc1Cl (configuration not stated) | 59 to 60
NNC(=O)Cc1cc(C(=O)c2ccc(I)c(N)c2)sc1-c1ccccc1 | 159 to 165
O=c1cccccc1N1CCN(c2cccccc2=O)CC1 | 184 to 186
CC(C)c1ccccc1Sc1c(O)cc(-c2ccc(OCC(=O)O)cc2)oc1=O | 217
CCOC(=O)Cc1c2cc(F)ccc2n2c(-c3ccc(SC)cc3)nccc12 | 59 to 62
COC(=O)C(C(=O)c1ccc(Cc2cn(C)c3ccc(NC(=O)OC4CCCC4)cc23)c(OC)c1)S(=O)(=O)c1ccccc1 (configuration not stated) | 65 to 70
CCOc1c(N)cc(-c2cccc3ccccc23)c2nc(C(=O)O)ccc12 | 182 to 184
CSc1ccc(C(=O)CC(=O)C2CC2)c2c1OC(F)(F)O2 | 46 to 47
COc1ccc(C(=O)Nc2ccc(F)c(F)c2)cc1NC(=S)Nc1cccc(C(=O)O)c1 | 221 to 222
COC(=O)[C@H](Cc1cccc2ccccc12)NC(=O)[C@H](CC(=O)OC(C)(C)C)NC(=O)c1cccc(N)c1 | 70 to 72
CC(=O)C1CCC2C3=C(C(=O)CC12C)C1(C)CCC(O)CC1CC3 (configuration not stated) | 170 to 172
CC[C@@H](c1ccc(F)cc1)N(Cc1ccc(C(=O)OC)cc1)S(=O)(=O)c1ccc(Cl)cc1 | 73 to 75
O=C(NS(=O)(=O)c1cccc([N+](=O)[O-])c1)c1ccccc1Cl | 135
CCOCc1cncc(-c2ccc3c(c2)nc(N)c2nc(COCC)n(CC(C)(C)O)c23)c1 | 156
COC1=CC(=O)C(Br)=CC1=O | 184 to 186
CC(C)Oc1ccccc1-c1cc(=O)c2cc(-c3nnn[nH]3)ccc2o1 | 293 to 295
O=c1c2cc(F)ccc2nc(CNc2ncccn2)n1-c1ccccc1Cl | 182 to 185

SMILES | melting point [°C]
CCOP(=O)(OCC)Oc1cc(CC)ccc1C1CCN(CCCCNC(=O)c2ccc(NC(=O)c3ccc(Cl)cc3)cc2)CC1 | 158 to 160
C#CCOc1cc(Oc2ccc(OC)cc2)ncn1 | 72
Cc1cc(NNC(=O)Nc2ccc(N(CCCl)CCCl)cc2)c2ccccc2n1 | 235 to 236
COc1cc(OCC(CO)CO)c(C=CC(=O)c2ccc(S(N)(=O)=O)cc2)cc1-c1cccs1 | 123 to 124
COc1cccc2c1c(N1CCOCC1)nc1c(-c3noc(C4CC4)n3)ncn12 | 227 to 228
CCOC(=O)C1=C(N2CCCC2)N=C(C)C(C(C)=O)C1c1cccc([N+](=O)[O-])c1 (configuration not stated) | 130
CCc1cc(CC)c(NC(=S)NC2CCCCC2)c(CC)c1 | 97 to 99
CNC(=O)CN1CCc2cc(Nc3ncc(Cl)c(Nc4cc(C(N)=O)ccc4OC)n3)c(OC)cc2CC1 | 225 to 236
C1=C(c2ccccc2)CC(CN2CCN(c3ccccn3)CC2)CC1 (configuration not stated) | 96 to 98
CCNC(=O)Nc1nc2nc(NCCCN3CCN(C)CC3)ncc2cc1-c1c(Cl)cccc1Cl | 82 to 90
CC(C)=CCO[C@H]1NC(=O)[C@@H]1NC(=O)c1ccccc1 | 92
O=C(O)C1CN(c2ccc(-c3noc(CCl)n3)cc2)C(=O)O1 (configuration not stated) | 178 to 181
O=C1CCC(=O)N1c1ccc(N2CCN(c3ccc(OCC(O)(Cn4cncn4)c4ccc(Cl)cc4Cl)cc3)CC2)cc1 (configuration not stated) | 212 to 216
O=C1CCN(Cc2ccccc2[N+](=O)[O-])CC1C(c1ccc(F)cc1)c1ccc(F)cc1 (configuration not stated) | 151 to 152
O=C(O)Cn1c(-c2ccc(C(F)(F)F)cc2)nc2cccnc21 | 240 to 241
C=Cc1c(N)nc(-c2ccc(Cl)c(F)c2F)nc1C(=O)OC | 130 to 132
COc1cccc2c1CC(CC(=O)O)C(=O)C2 (configuration not stated) | 129 to 131
CC(C(=O)O)c1ccc(CC2CCCC2=O)cc1 (configuration not stated) | 108 to 111
CCCc1nn(C)c2c(=O)n(CCCc3ccc(OC(C)(C)C(=O)O)cc3)c(C)nc12 | 104 to 106
CC(=O)Nc1cccc2c1C(=O)c1c-2n[nH]c1C(C)C | > 250
COc1ccc2c(c1)C(c1ccc(N)cc1)=NN(C(C)=O)C(C)C2 (configuration not stated) | 237 to 238
CCCS(=O)c1ccc([N+](=O)[O-])c(N)c1 (configuration not stated) | 128 to 130
O=C(O)c1cc2c(F)ccc(Br)c2s1 | 249 to 252

Other lines, results leading:

melting point [°C] | SMILES
103 to 104 | Cc1ccc(C)c(NC(=O)OC(C)(C)C)c1
168 to 170 | NC1=NN(c2ccccn2)CC1
229 | CN(C)c1ccc(C2(c3ccccc3)Oc3ccccc3-c3[nH]c4ccccc4c32)cc1 (configuration not stated)
88 to 119 | COC(=O)c1cc(CBr)cnc1C1=NC(C)(C(C)C)C(=O)N1C(=O)c1ccccc1 (configuration not stated)
87 | CCCCCCCCCCc1cnc(-c2ccc3c(c2)C(=O)C(CCCCCC)C3)nc1 (configuration not stated)
188 to 192 | CCOC(=O)c1cnc(N(CC)Cc2ccc3nc(C)[nH]c(=O)c3c2)s1
101 to 103 | OCCCCCCCCOc1ccc(-c2ccccc2)cc1
170 | COc1ccc(CN(C)CCN(C)Cc2ccc(NC(=O)c3cccc4c(=O)c5cccc(OC)c5[nH]c34)cc2)cc1OC
122 to 124 | O=C(O)CCCCCCCNS(=O)(=O)c1ccc(Cl)cc1
135 to 136 | CS(=O)c1ccc(-c2coc3ccc(-c4nnc(SCc5cccc(F)c5)o4)cc23)cc1 (configuration not stated)
113 to 115 | CCOC(=O)C(Cc1ccc(OCCn2c(=O)sc3cc(C(=O)C4CC4)ccc32)cc1)OCC(F)(F)F (configuration not stated)
249 to 251 | CC1(C)COc2ccc(C(=O)Nc3ccc(C(=O)O)cc3)cc2OC1
164 | Nc1nc(S(=O)(=O)Cl)nn1C(=O)Oc1ccccc1
50 to 51 | CCn1nc(C#N)c(Br)c1CC(C)C
155 | Cn1c(=O)n(Cc2ccccc2)c(=O)c2cc(C(=O)CCc3ccccc3)ccc21
138 to 140 | Cc1nc(-c2ccc(-c3ccc(C(=O)Nc4ccc(Br)c(OCCN(C)C)c4)cc3)c(C)c2)no1
83 to 87 | COC(=O)CCc1cc2cc(Cl)ccc2n1S(=O)(=O)c1ccc(C(C)=O)cc1
84 to 85 | N#CCCOc1ccc(F)cc1
174 to 175 | CS(=O)(=O)Nc1ccc(C(N)=NO)cc1Oc1ccc(F)cc1F
218 to 220 | CCCCc1c(C(=O)O)cc(Cl)cc1[N+](=O)[O-]
124 to 126 | CNc1cccc(S(N)(=O)=O)n1
79 to 82 | CCCCOC(C(=O)O)c1ccc2c(c1)C(C)(C)CCC2(C)C (racemic)
153 to 155 | CSC(C(N)=O)c1cccc(C(=O)c2ccccc2)c1N (configuration not stated)
116 to 117 | OCCc1coc2c(O)cccc12
68 to 70 | CCCCc1nnc(-c2ccc([N+](=O)[O-])cc2)o1

melting point [°C] | SMILES
147 to 149 | CC(C)Cn1c(CNC(=O)OC(C)(C)C)c(-c2cccc(F)c2)c2cc(C(N)=O)ccc2c1=O
111 to 112 | CCCn1c(=O)c2c(nc(CO)n2C)n(CCC)c1=O
82 to 83.5 | Nc1cccc(N)c1Cl
170 | O=c1[nH]c(-c2ccccc2F)nc2c1CCCC2
93 to 95 | CCc1c(-c2ccc(O)cc2)c2cc(COCCN(CC)CC)c3cccc1n32
100 to 102 | O=C(O)CCC[C@@H](O)[C@@H](CCc1ccccc1)S(=O)(=O)c1ccccc1 (relative stereo)
230 | COC(=O)c1cc(C(=O)c2nc(Br)c3ccccn23)ccc1N
102 to 104 | CCCCCCCCCCCCCCCCCC(=O)N1CCN(c2cc(N3CCCC3)nc(N3CCCC3)n2)CC1
226 to 228 | CN1c2ccccc2-c2nc3ccc(Cl)cc3c3cccc1c23
168 to 170 | N=C(N)N(CCCCc1ccc(OCC(=O)Nc2ccccc2)cc1)C(=O)c1nc(Cl)c(N)nc1N
168 | COC(=O)c1cc2cc([N+](=O)[O-])ccc2o1
168 to 169 | N#Cc1ccc(C(Cl)=NNc2c(Cl)cc(C(F)(F)F)cc2Cl)cc1
132 | Fc1ccc(-c2nc3ccccc3nc2-c2ccc(F)cc2)cc1
248 to 249 | COC(=O)c1ccc(-c2oc3nc[nH]c(=O)c3c2C(=O)OCc2ccccc2)cc1
176 to 178 | O=C(O)C(Cc1ccccc1)Oc1ccc2cc(-c3ccc(-c4ccccc4)[nH]3)ccc2c1 (configuration not stated)
236 to 238 | CC(C)(C)c1cc(-c2coc3c(C(C)(C)C)cc(C(C)(C)C)cc23)c(O)c(C(C)(C)C)c1
120 to 122 | CC(C)c1c(CCC=O)c2c(c(C(C)C)c1OCc1ccccc1)CC(C)(C)O2
319 to 322 | Cn1nc(-c2cnc3[nH]cc(C(=O)NCC4CC4)c3n2)c2ccc(F)cc21
166 to 168 | COC1(c2nc3ccc(C)cc3s2)C=CC(=NS(=O)(=O)c2ccc(C)cc2)C=C1 (configuration not stated)
163 | COc1c(C)cnc(CS(=O)c2nc3cc(C(F)(F)F)ccc3[nH]2)c1C (configuration not stated)
210 to 230 | CC1(C)Cc2c(CO)c(O)c3c(c2C(c2ccccc2)=N1)CC(C)(C)O3
> 300 | O=c1c2sc3ccccc3c2oc2cc(O)cc(O)c12
90.8 to 92.1 | CC1(C)COC(=S)N(Cc2ccccc2N)C1
80 | [N-]=[N+]=NC1CC(n2cc(I)c(=O)[nH]c2=O)OC1C(O)C(c1ccccc1)(c1ccccc1)c1ccccc1 (configuration not stated)
235 to 237 | N#Cc1cc(F)cc(-c2ccc3c(c2)C2(CCCC2)C(=O)N3)c1
